Test results taken from patent US12491248B2, “Method for generating immunoregulatory cells in a blood-derived sample” (Therakos Development Limited, priority 2019, dated 2025).

Experiments:
[1] = tested on: immune checkpoint inhibitor-related colitis; assay: Immunosuppressive drug treatment of the patient's colitis episodes before ECP; assay type: in vivo, human
Method: (§1) A patient was treated with ipilimumab and nivolumab for metastatic melanoma. […] Colitis was diagnosed based on macroscopic mucosal ulcerations and intraepithelial apoptosis and crypt loss identified in the biopsy (FIG. 1a,b). While dermatitis, thyroiditis and hepatitis resolved after stopping ipilimumab/nivolumab and corticosteroid treatment, the patient experienced three colitis episodes within the next 20 weeks (CTC-AE II-III°). These were treated with corticosteroids (in total 23 weeks prior to ECP), infliximab (2 single doses 18 and 15 weeks prior to ECP) and cyclosporine (14 weeks prior to ECP, FIG. 1a and Table 1).
The patient had their first episode of colitis 20 weeks prior to the start of ECP. At that time point they had been treated for 3 weeks with steroids for their previous immune checkpoint inhibitor-related hepatitis, thyroiditis and dermatitis. The colitis occurred during tapering of the steroids. Therefore, the steroid dose was increased and due to an insufficient response, infliximab 5 mg/kg BW was administered once. […] Upon steroid tapering, the patient experienced their second episode of colitis, 16 weeks prior to begin of ECP. They were treated with an increased dose of methylprednisolone and a second dose of infliximab. The diarrhea was refractory to this therapy and consequently cyclosporine A was added. […] Here, ECP treatment was initiated. […]

[2] = Adverse events of ipilimumab and nivolumab in the metastatic melanoma patient; assay type: in vivo, human; conditions: after two doses of ipilimumab and nivolumab
Method: as §1

B16 melanoma cells = assay: Survival of melanoma-bearing mice treated with anti-PD1; assay type: in vivo; conditions: combined with anti-PD1, compared to anti-PD1 only
Method: FIG. 7: • (a) Treatment schedule: Mice were injected iv with B16 melanoma cells and afterwards treated with anti-PD1, prednisolone or ECP as indicated. • (b) Survival of mice injected iv with B16 melanoma cells and afterwards treated with anti-PD1, prednisolone or ECP.
To understand if the immunomodulatory effect of ECP was connected to a loss of anti-tumor activity we next treated melanoma bearing mice with anti-PD1 alone or in combination with the glucocorticoid prednisolone or ECP (FIG. 7A). We observed that prednisolone reduced the survival of melanoma-bearing mice compared to the group treated with anti-PD1 only (FIG. 7B).

infliximab: anti-TNF antibody
diarrhea, second episode ([1]; increased dose of methylprednisolone and a second dose of infliximab): refractory | colitis symptoms, first episode ([1]; infliximab 5 mg/kg BW once, added to increased steroid dose): symptoms resolved

ipilimumab: antagonistic antibody directed against CTLA4
immune-related adverse events developed [2]: dermatitis, thyroiditis, hepatitis and colitis

nivolumab: antagonistic anti-PD-1 antibody
immune-related adverse events developed [2]: dermatitis, thyroiditis, hepatitis and colitis

C[C@]12C=CC(=O)C=C1CC[C@@H]1[C@@H]2[C@@H](O)C[C@@]2(C)[C@H]1CC[C@]2(O)C(=O)CO [prednisolone]
survival of melanoma-bearing mice (B16 melanoma cells): reduced
